The text below walks through data of US20110092453A1, “TREATMENTS AND PREVENTION OF HYDROCEPHALUS” (THE UNIVERSITY OF MANCHESTER, priority 2007, published 2011).

The subject of data set [1] is germinal epithelium cells. Conditions: in the presence of 10% HC CSF; n=3.
A further data set has as its system H-Tx model of EOHC. The data set can be described thus: In vivo supplementation of mothers, numbers of affected HC fetuses. On the set-up: species or system rat. Conditions: long term: 2.5 mg/kg daily from 14 days prior to mating to day 20; saline controls 45%. The protocol: Mothers were injected daily with 2.5 mg/kg of the supplements folic acid or folinic acid or saline controls. Injections were started 14 days prior to mating and continued throughout pregnancy up to harvesting of the fetuses at day 20. Fetuses were harvested on Day20 of gestation and each fetus was scored as affected HC or normal. The percentage of normal or affected fetuses in each litter was then calculated and results were averaged across the 3 mothers (2 for saline treatment) and are plotted as shown, mean±SD.
Mothers were injected daily with 2.5 mg/kg of the supplements folic acid or folinic acid. Injections were started at E17 of the pregnancy and continued through the rest of the pregnancy up to harvesting of the fetuses at day 20. Fetuses were harvested on Day20 of gestation and each fetus was scored as affected HC or normal. The percentage of normal or affected fetuses in each litter was then calculated and results were averaged across the 3 mothers (2 for saline treatment) and are plotted as shown, mean±SD.
Timed pregnancies of H-Tx or Wistar rats were harvested from pregnant dams killed by intraperitoneal injection of sodium pentobarbitone. […]
Female rats were handled for one week prior to the start of the supplementation protocol to decrease handling stress. […] Stained sections were photographed on a Lecia DMLB photomicroscope and analysed using Metaview software. […]

Data set [2] in a line: Effect of supplementation on mother's weight through pregnancy. It is filed as in vivo, rat. Conditions: 2.5 mg/kg daily injection from 14 days prior to mating to day 20; no significant differences. The protocol: Mothers were injected daily with 2.5 mg/kg of the supplements folic acid or folinic acid or saline controls. Injections were started 14 days prior to mating and continued throughout pregnancy up to harvesting of the fetuses at day 20. Mothers were weighed at the same time each day and data converted to % of starting weight at day 0. Results were averaged across the 3 mothers (2 for saline treatment) and are plotted as shown mean±SD.
The hypothesis was tested further using the H-Tx model of EOHC. Mothers were injected daily with 2.5 mg/kg of the supplements folic acid (3 mothers-31 pups) or folinic acid (3 mothers-35 pups) or saline controls (2 mothers-20 pups). Injections were started 14 days prior to mating and continued throughout pregnancy up to harvesting of the fetuses at day 20.

For data set [3] the following is noted: human population, supplementation of female diets; data from reports; cited from earlier work.

In the case of `Nc1nc2ncc(CNc3ccc(C(=O)N[C@@H](CCC(=O)O)C(=O)O)cc3)nc2c(=O)[nH]1` [[^3H]-folic acid], the “uptake, % of that in the absence of added CSF” value in data set [1] was determined as 53±13%.
Consider `Nc1nc2ncc(CNc3ccc(C(=O)N[C@@H](CCC(=O)O)C(=O)O)cc3)nc2c(=O)[nH]1` [folic acid], for which the “incidence of HC (percentage of affected fetuses in the litter)” value with H-Tx model of EOHC stood at 60%. In addition, the “weight of the mothers compared to saline treated animals” value in data set [2] was “slightly increased weight”. Moreover, the “effect on the incidence of HC” value in data set [3] was “does not have any significant effect”.
